Source: BindingDB's records for doi:10.1021/jm00390a019 (1987)

Target: Gastrin/cholecystokinin type B receptor (Cavia porcellus)
Experiment: Half-maximal inhibition of binding of [125I]gastrin to guinea pig gastric glands

CC(C)C[C@H]1N=C(c2ccccc2)c2cc(Cl)ccc2NC1=O
IC50: 38 µM

CC(C)CCN1C(=O)[C@@H](Cc2c[nH]c3ccccc23)N=C(c2ccccc2F)c2ccccc21
IC50: 23 µM

O=C1Nc2ccccc2C1C[C@H]1N=C(c2ccccc2)c2cc(Cl)ccc2NC1=O (stereo not given in full)
IC50: > 100 µM

O=C(O)CCN1C(=O)[C@@H](Cc2c[nH]c3ccccc23)N=C(c2ccccc2F)c2ccccc21
IC50: 5.8 µM

CCN1C(=O)[C@@H](Cc2c[nH]c3ccccc23)N=C(c2ccccc2F)c2ccccc21
IC50: > 100 µM

CC(C)CC(N)C(=O)N1CC(CC2N=C(c3ccccc3)c3ccccc3NC2=O)c2ccccc21 (stereo not given)
IC50: > 100 µM

O=C(O)CN1C(=O)[C@@H](Cc2c[nH]c3ccccc23)N=C(c2ccccc2F)c2ccccc21 [CCK antagonist synthetic 13]
IC50: 5 µM

CN1C(=O)[C@@H](Cc2c[nH]c3ccccc23)N=C(c2ccccc2)c2ccccc21
IC50: 21 µM

CN1C(=O)[C@@H](Cc2cn(C)c3ccccc23)N=C(c2ccccc2)c2ccccc21
IC50: 67 µM

O=C1Nc2ccc(Cl)cc2C(c2ccccc2)=N[C@@H]1COCc1ccccc1
IC50: 13 µM
